“Also recorded” adds a separate entry of the source. Peptide text beside a SMILES is read from it.
Experiments:
Type in all cases: in vivo, rat
EphB1 [1] = assay: Western blot of EphB1 and pEphB1 in spinal cord of naive rats; conditions: for Activation (phosphorylation) of EphB1 / Expression of EphB1 protein: exogenous MMP, no EphB2-Fc
Protocol: (§1) Protein precipitation procedures in conjunction with Western blots were employed to identify temporal expression of EphB1, ephrinB2 protein and their phosphorylation. Protocols were similar to those described previously (Liu W T, et al., FASEB J 2009; 23:90-8; Liu W T, et al., J Neurosci 2010; 30:7613-23). EphB1 and ephrinB2 were immunoprecipitated from 2 mg total protein/int tissue lysate using an anti-EphB1 antibody (2 μg; Santa Cruz Technology, SCT) complex with protine G-agarose (Invitrogen) and wheat germ agglutinin (WGA) linked to agarose (Sigma), respectively. EphrinB2 and its phosphorylation were detected using anti-ephrinB2 (C20, SCT) and anti-phosphotyrosine antibody PY99 (SCT), respectively (Georgakopoulos A, et al., EMBO J 2006; 25:1242-52). EphB1 and its phosphorylation were detected using anti-EphB1 antibody (Q20, SCT) and phosphotyrosine antibody 4G 10 (Upstate Biotechnology), respectively (Compagni A, et al., Dev Cell 2003; 5:217-30). NR2A immunoprecipitation was performed using anti-NR2A antibody followed by adsorption to protein G-agarose. Whole cell protein extracts lysates were used to identify temporal expression of the phosphorylated protein levels of NR1(pNR1), NR2B(pNR2B), Src(pSrc), ERK(pERK), CaMKII(pCaMKII), CREB(pCREB) and GAPDH. The primary antibodies were used include pNR1(Ser897), 1:800 (Millipore); pNR2B(Tyr1472), 1:300 (Chemicon); pSrc(Tyr418), 1:800 (Abeam, Cambridge, UK); pERK1/2(Thr202/Tyr204), 1:500; pCaMKII(Thr286), 1:1000 (Cell Signaling Technology); GAPDH, 1:1000 (Sigma); GFAP and pCREB (Ser133)(SCT). The filters were then developed using ECL reagents (Perkinelmer) with secondary antibodies (Chemicon). Data was analyzed with a Molecular Imager (Gel Doc™ XR, 170-8170) and the associated software Quantity One-4.6.5 (Bio-Rad Laboratories).

EphB1 [2] = assay: Western blot of EphB1 and its phosphorylation in spinal cord of TCI rats; conditions: for Increased levels of EphB1: exogenous MMP, no EphB2-Fc
Protocol: as §1

EphB1 [3] = assay: Western blot of EphB1 after acute or chronic morphine treatment
Protocol: as §1

[4] = Morphine analgesia on thermal hyperalgesia in TCI rats
Protocol: Tumor cells were extracted from ascitic fluid of rats that received Walker-256 rat mammary gland carcinoma cells. Tumor cells implantation (TCI) was mimicked by injecting the cells (1×10^5 cells/μl, 5 μl) into the intra-medullary space of the right tibia to induce bone cancer in rats (Medhurst S J, et al., Pain 2002; 96:129-40).
Thermal hyperalgesia was determined by the significant shortened latency of foot withdrawal in response to heat stimulation. Mechanical allodynia was indicated by a significant decrease in the threshold of paw withdrawal to mechanical indentation of the plantar surface of each hindpaw. The protocols were similar to those described previously (Song X J, et al., J Neurophysiol 2006; 95:479-92; Wang Z B, et al., Pain 2005; 114:266-77).

## CC(C)C[C@@H](NC(=O)[C@@H]1CCCN1C(=O)CNC(=O)c1ccc(N)cc1)C(=O)N[C@H](C)C(=O)NO [FN439] (HELM PEPTIDE1{[Nc1ccc(C(=O)[*:2])cc1].G.P.[dL].[dA].[ON[*:1]]}$$$$V2.0)
EphB1 [1]; MMP2i 10 μg or FN439 100 μg
  EphB2-Fc-induced downregulation of EphB1: reversed; also recorded: completely prevented
EphB1 [1]; blocking MMP-2 or MMP-9
  EphB1 level, without EphB2-Fc treatment: keeping EphB1 at its physiological levels
EphB1 [2]; MMP2i 10 μg or FN439 100 μg
  EphB2-Fc-induced downregulation of EphB1: reversed; also recorded: completely prevented
EphB1 [2]; blocking MMP-2 or MMP-9
  TCI-induced upregulation of EphB1, without EphB2-Fc treatment: inhibited

## CN1CC[C@]23c4c5ccc(O)c4O[C@H]2[C@@H](O)C=C[C@H]3[C@H]1C5 [morphine]
EphB1 [3]; acute morphine treatment (100 mg/kg, then 10 mg/kg at 24 h)
  Expression of EphB1 and its phosphorylation: significantly increased
EphB1 [3]; acute morphine treatment (100 mg/kg, then 10 mg/kg at 24 h), listed as Mor
  Expression of EphB1 and its phosphorylation: upregulates
EphB1 [3]; chronic morphine treatment (10 mg/kg)
  Expression of EphB1 and its phosphorylation: significantly increased
[4]; morphine 10 mg/kg s.c. twice a day
  Thermal hyperalgesia: significantly suppressed
[4]; repeated morphine 10 mg/kg s.c. twice a day
  Time after which the analgesic effect decreased and disappeared (tolerance): 6 to 7 days

## MMP-9: exogenous matrix metalloproteinase-9 administered to rats
EphB1 [1]
  Activation (phosphorylation) of EphB1: an increase rather than a decline
  Expression of EphB1 protein: without altering
EphB1 [2]
  Increased levels of EphB1: did not significantly alter

B1: MMP-2: exogenous matrix metalloproteinase-2 administered to rats (protein, UniProt P33436 110-662, looked up)
72 kDa type IV collagenase: YNFFPRKPKWDKNQITYRIIGYTPDLDPETVDDAFARALKVWSDVTPLRFSRIHDGEADIMINFGRWEHGDGYPFDGKDGLLAHAFAPGTGVGGDSHFDDDELWTLGEGQVVRVKYGNADGEYCKFPFLFNGREYSSCTDTGRSDGFLWCSTTYNFEKDGKYGFCPHEALFTMGGNGDGQPCKFPFRFQGTSYNSCTTEGRTDGYRWCGTTEDYDRDKKYGFCPETAMSTVGGNSEGAPCVFPFTFLGNKYESCTSAGRSDGKVWCATTTNYDDDRKWGFCPDQGYSLFLVAAHEFGHAMGLEHSQDPGALMAPIYTYTKNFRLSNDDIKGIQELYGPSPDADTDTGTGPTPTLGPVTPEICKQDIVFDGIAQIRGEIFFFKDRFIWRTVTPRDKPTGPLLVATFWPELPEKIDAVYEAPQEEKAVFFAGNEYWVYSASTLERGYPKPLTSLGLPPDVQQVDAAFNWSKNKKTYIFSGDKFWRYNEVKKKMDPGFPKLIADSWNAIPDNLDAVVDLQGGGHSYFFKGAYYLKLENQSLKSVKFGSIKSDWLGC
EphB1 [1]
  Activation (phosphorylation) of EphB1: an increase rather than a decline
  Expression of EphB1 protein: without altering
EphB1 [2]
  Increased levels of EphB1: did not significantly alter

— patent US20130108628A1, “Method for treating cancer pain and/or rescuing analgesic effect of morphine treatment of cancer pain” (priority 2011, published 2013)
